Source: patent US7045497B1, “Use of peptide” (Takeda Chemical Industries, Ltd., priority 1998, dated 2006)
No end group written: not given here.

Tested on: oxytocin secretion
Experiment: Effect of third intraventricular administration of PrRP (19P2-L31) on amount of oxytocin secreted in plasma (radioimmunoassay)
Type: in vivo, Mature male Wistar rats
Procedure: Mature male Wistar rats (weighing 350 to 380 g at the time of surgery) were anesthetized by intraperitoneal administration of 50 mg/kg pentobarbital, and were fixed in a rat brain stereotactic instrument. The brace bar was lowered 3.3 mm from the intra-oral line. The cranial bone was exposed, and a dental drill was used to perforate the bone in order to implant a guide cannula AG-12 (inside diameter 0.4 mm, outside diameter 0.5 mm, Eicom) into the third ventricle. Anchor screws were embedded in four locations around the cannula. The stainless steel guide cannula AG-12 was inserted to a position at the top of the third ventricle. Position coordinates were AP: +7.1 mm, L: 0.0 mm, and H: +2.0 mm, in accordance with the atlas of Paxinos and Watson (1986). The guide cannula was secured to the cranial bone using instant adhesive, dental cement, and the anchor screws. A stainless steel dummy cannula AD-12 (outside diameter 0.35 mm, Eicom) was inserted into the guide cannula and secured with a cap nut (Eicom). Following surgery, the rats were bred in individual cages.
Animal were given about 1 week to recover after implantation of the guide cannulas, and blood was drawn as the animals were allowed to move freely. Rats which had undergone the aforementioned surgery were anesthetized by intraperitoneal administration of 50 mg/kg pentobarbital. […]

Substance: PrRP (19P2-L31): physiologically active peptide, ligand for G protein-coupled receptors phGR3 (GPR10) and UHR-1; described in Nature 393:272–276 (1998) and WO 97/24436 (SRTHRHSMEIRTPDINPAWYASRGIRPVGRF; ends and bridges not checked; UniProt P81277 23-53, looked up)
- oxytocin concentration in blood relative to control group (rat, 10 nmol to the third ventricle, 5 minutes after administration, FIG. 2): about 2 times
- oxytocin concentration in blood after intraventricular administration (rats, intraventricular administration, result in words): elevated oxytocin concentration in blood
